From patent publication EP1077677B1, “PROCESS FOR THE MANUFACTURE OF A BIOLOGICALLY ACTIVE COMPOSITION” (JAGOTEC AG, priority 1998, dated 1999)
≈ marks a conversion by molar mass, not a printed value.

Test: physchem
Format: physicochemical
Details: water
Method: In order to determine its water solubility, an excess of metronidazole was added to water, after which the mixture was stirred for 3 days at room temperature.

solubility thermodynamic at 72 h: 8200 µg/mL (≈ 47.9 mM)
Structure (SMILES): Cc1ncc([N+](=O)[O-])n1CCO [metronidazole]
